Experimental data from ChEMBL document CHEMBL1136436, “A new model of the tautomycin-PP1 complex that is not analogous to the corresponding okadaic acid structure” (Bioorg Med Chem Lett, 2003).

Assays:
[1] = Inhibition of protein phosphatase 2A (PP2A) was determined by standard phosphorylase inhibition assay; design: species or system Oryctolagus cuniculus
[2] = Inhibition of protein phosphatase 1 (PP1) was determined by standard phosphorylase inhibition assay; design: species or system Oryctolagus cuniculus

Compound	IC50 [1]	IC50 [2]
CO[C@H]([C@H](O)CC(=O)[C@@H](C)[C@@H](O)CC[C@@H](C)[C@@H]1O[C@]2(CC[C@@H](C)[C@H](CC[C@H](C)C(C)=O)O2)CC[C@@H]1C)[C@H](OC(=O)C[C@@H](O)C1=C(C)C(=O)OC1=O)C(C)C [TAUTOMYCIN]	0.9 µM	0.19 µM
CO[C@@H](CO)[C@H](OC(=O)C[C@@H](O)C1=C(C)C(=O)OC1=O)C(C)C	3.3 µM	4.8 µM
CC[C@@H](C)CC[C@H](O)[C@H](C)C(=O)C[C@@H](O)[C@H](OC)[C@H](OC(=O)C[C@@H](O)C1=C(C)C(=O)OC1=O)C(C)C	100 µM	130 µM
